# Experimental data taken from patent US8236761B2, “C-Met receptor regulation by angiotensin IV (AT4) receptor ligands” (Washington State University Research Foundation, priority 2006, dated 2012).
# Non-standard residues stand in square brackets, D forms with d. No end group written: not given here. Nle = CCCC[C@H](N)C(=O)O
# Assays:
# neovascularization = assay: Disc angiogenesis assay (subcutaneous sponge disc); type: in vivo, Sprague Dawley rats; conditions: 50 μg per disc core, 14 days, rat
# Method: FIG. 19 depicts effects on angiogenesis of angiotensin-like factors in a rat in vivo disc angiogenesis assay. Vascularization was quantified by digital image analysis of fixed and stained discs recovered from animals 14 days after subcutaneous implantation of sponge discs containing the indicated compounds.
# Disc Angiogenesis Assay. […] A 2 mm core was removed from the center of each disc, saturated with 50 μg of Nle^1-AngIV (SEQ ID NO:41), Nle^1-Leu^3-Ψ(CH2NH2)^3-4-AngIV, Hexamide, or ethanol (control), air dried, then sealed using a fixative (Elvax, DuPont) to allow sustained delivery of the drug treatment into the disc and adjacent tissues. The cores were dried for 30 min, then reinserted into the sponge discs. Impermeable top and bottom covers were prepared by coating 10 mm diameter paper discs with a plexiglass coating, then glued to the top and bottom of the sponge discs, leaving only the rim of the disc available for centripetal cellular penetration. Just prior to implantation, the discs were soaked briefly in sterile saline.
# Thirty-two Sprague Dawley female rats (225-275 gr) were used to evaluate four compounds for angiogenic or anti-angiogenic properties using the disc angiogenesis assay. Animals were anesthetized using sodium pentobarbital (40 mg/kg IP). The dorsum was then shaved and aseptically prepped. Each animal received four discs. Animals receiving treated discs were implanted with 2 treated discs and 2 ethanol-soaked control discs. Thus, in a group of 4 animals there were 8 treatment discs, and 8 control discs. These control discs were used to determine whether the ligand had potential systemic effects. Another group of 4 animals received only ethanol-soaked control discs (spontaneous growth controls or SGC discs) for an n=16. However, one SGC was fragmented during processing leaving an n=15.
# Four 2 cm cutaneous incisions were made along the dorsum (left thoracic, right thoracolumbar, left thoracolumbar, and right lumbar), and subcutaneous pouches opened in the fascia using blunt dissection. Discs were moistened in sterile saline, inserted deep to the pouch, and the skin closed with sterile surgical staples. Animals were recovered under heat lamps until sternally recumbent, then individually housed for 14 days in an AAALAC accredited facility (water and food ad libitum; 12/12 hour light cycle).
# After 14 days the animals were euthanized in a CO2 chamber and the discs were removed. […] Cellular penetration into the discs was quantified using a digital imaging system (Imaging Research Inc., St. Catharines, Ontario, Canada). The total area of the disc was calculated, as was the area containing stained cells. […]
# Results. Following staining with toludine blue or Factor VIII, neovascularization was quantitated by densitometry.
# c-Met receptor = assay: Cross-linking of 125I-COMPOUND 2 or 125I-HGF to HEK293 cell membranes with unlabeled competitor; type: binding, human; conditions: cross-linked, 1 nM competitor
# Method: (§1) FIG. 3C: ^125I-Norleual was bound to HEK membranes in the presence or absence of 1.5 nM HGF (n=8) or 1 μM Norleual (n=6). Total binding is reported as percent control (n=10), (*p<0.001). Error bars indicate±SD. […] Error bars indicate SD and data points were performed in duplicate.
# Briefly, COMPOUND 2 was iodinated with […] and bound and cross-linked to HEK cell membranes with or without 1 nM COMPOUND 2 or 1 nM hepatocyte growth factor. Following solubilization and separation of free label by molecular sieving, total radioactive counts were determined. The ability of the ligand COMPOUND 2 to compete with hepatocyte growth factor binding to the c-Met receptor was also tested using mouse liver plasma membranes and intact HEK293 cells. Briefly, mouse liver was homogenized and incubated with ^125I-HGF with various concentrations of HGF or COMPOUND 2. Membranes were pelleted and unbound label was removed by washing, and total radioactive counts were determined. Next, HEK293 cell membranes were cross-linked with ^125I-HGF with unlabeled HGF or COMPOUND 2.
# [1] = tested on: HEK293 cell membranes (c-Met system); assay: 125I-Norleual binding assay, HEK293 cell membranes; set-up: species or system human; conditions: 1.5 nM HGF or 1 μM Norleual
# Method: as §1
# ^125I-Norleual binding assay. HEK293 cells were grown to confluency in DMEM fortified with 10% FBS. Media was aspirated and cells were washed twice with ice-cold PBS. Cells were lysed with hypotonic buffer and homogenized as described by Zhang et al. (1999, J. Pharmacol. Exp. Ther. 289: 1075-1083; 2003 J. Cell Biochem. 88: 408-417). 450 μg of membrane protein was incubated with 1.5 nM ^125I-Norleual with or without Norleual or HGF in a total volume of 250 μl PBS, 0.1% BSA. Tubes were spun and binding was carried out for 60 minutes at RT. Bound and free ligands were separated by vacuum filtration using (Brandel Cell Harvester, Schleicher & Schull, Keene, N.H., USA) 32 glass filters. Radioactivity retained by the filters was measured using a gamma counter. […] Data analysis was preformed using Prism software (GraphicPad) per the supplier's recommendations.
# Materials and methods were as described in Example 1. In separate tests of unlabeled competitors, both Norleual and HGF competed with ^125I-HGF for high affinity binding to mouse liver plasma membranes (FIGS. 2A, 2B). […]
# c-Met = c-Met (Homo sapiens, UniProt P08581); assay: Immunoprecipitation/Western blot of HGF-dependent c-Met and Gab1 phosphorylation and association in HEK293 cells; type: cell-based; set-up: host or cells: HEK293; conditions: HEK293 cells, 10 minutes
# Method: (FIG. 5A) HEK293 cells were treated for 10 minutes with HGF at indicated concentrations. Lysates were immunoprecipitated (IP) with anti-c-Met antibody (DO-24) and immunoblotted (IB) with anti-c-Met or anti-phospho-tyrosine (06-427) antibody. (FIG. 5B) HEK293 cells were treated for 10 minutes with HGF and/or Norleual. Lysates were IP with anti-c-Met (DO-24) and IB with anti-c-Met (DQ-13) or anti-phospho-tyrosine (HAM 1676). (FIG. 5C) HEK293 lysates were IP with anti-c-Met (DO-24) and IB with anti-Gab1. (FIG. 5D) HEK 293 lysates were IP with anti-Gab1 and IB with anti-Gab1 or anti-phospho-tyrosine (HAM 1676). (FIGS. 5E, 5F, 5G) Relative amounts (normalized to % total c-Met in IP) of quantified IP/IB band intensities for control, 110 pM HGF-, 110 pM HGF and 20 pM Norleual-, and 20 pM Norleual-treated HEK293 cells for phospho-c-Met (FIG. 5E, n=4), phospho-Gab1 (FIG. 5F, n=4), and c-Met associated Gab1 (FIG. 5G, n=3). Error bars indicate ±SD.
# HEK293 cells were treated for 10 minutes with HGF and/or Norleual at the indicated concentrations. Lysates were IP with anti-c-Met (DO-24, Millipore/Upstate, Billerica, Mass.) and IB with anti-c-Met (DQ-13, Millipore/Upstate) or anti-phosphotyrosine (HAM1676, lot JLB03, R&D Systems, Inc., Minneapolis, Minn.).
# Immunoprecipitation and Western blotting. Cells were serum starved for two hours in DMEM before treatment. Cells were harvested using RIPA lysis buffer (Upstate Biotechnol. Inc., Lake Placid, N.Y.) with phosphatase inhibitor cocktails 1 and 2 (Sigma, St Louis, Mo., USA). Protein concentration was determined using the BCA assay (Pierce, Rockford, Ill., USA). Lysates were incubated with antibody overnight at 4° C. Immunoprecipitation controls received mouse non-specific Ig (Upstate). Proteins were captured with protein-A agarose (Upstate) and were washed with PBS. Proteins were resolved using SDS-PAGE electrophoresis (Criterion, BioRad, Hercules, Calif., USA), transferred to nitrocellulose, and incubated with appropriate antibodies. Proteins were visualized using the Supersignal West Pico Chemiluminescent Substrate system (Pierce). The film images were digitized and analyzed using TotalLab® software (AmershamPharmacia/GE HealthCare, Piscataway, N.J.).
# Whether the interaction of Norleual with the c-Met receptor had functional consequences regarding c-Met signaling was next investigated by determining whether Norleual could alter the phosphorylation status of cellular protein tyrosine phosphate (FIG. 4) and more specifically, of c-Met (i.e., c-Met activation), and also whether Norleual could modulate Gab1 association with c-Met. Human embryonic kidney HEK293 cells were activated by HGF in the presence or absence of Norleual. Solubilized membranes were immunoprecipitated (IP) with an anti-c-Met antibody and immunoblotted (IB) for total c-Met, anti-phospho-tyrosine to detect the activated form of c-Met, and anti-Gab1 to detect c-Met/Gab1 association. […] To confirm these findings, treated HEK293 lysates were precipitated with anti-Gab1 and blotted for total Gab1 and phospho-Gab1, its activated form. Again, Norleual inhibited HGF-induced Gab1 phosphorylation (FIGS. 5D, […]).
# human endothelial cells = assay: Proliferation and migration of human endothelial cells; type: cell-based
# Sequence of c-Met (P08581 308-1390 limits assumed): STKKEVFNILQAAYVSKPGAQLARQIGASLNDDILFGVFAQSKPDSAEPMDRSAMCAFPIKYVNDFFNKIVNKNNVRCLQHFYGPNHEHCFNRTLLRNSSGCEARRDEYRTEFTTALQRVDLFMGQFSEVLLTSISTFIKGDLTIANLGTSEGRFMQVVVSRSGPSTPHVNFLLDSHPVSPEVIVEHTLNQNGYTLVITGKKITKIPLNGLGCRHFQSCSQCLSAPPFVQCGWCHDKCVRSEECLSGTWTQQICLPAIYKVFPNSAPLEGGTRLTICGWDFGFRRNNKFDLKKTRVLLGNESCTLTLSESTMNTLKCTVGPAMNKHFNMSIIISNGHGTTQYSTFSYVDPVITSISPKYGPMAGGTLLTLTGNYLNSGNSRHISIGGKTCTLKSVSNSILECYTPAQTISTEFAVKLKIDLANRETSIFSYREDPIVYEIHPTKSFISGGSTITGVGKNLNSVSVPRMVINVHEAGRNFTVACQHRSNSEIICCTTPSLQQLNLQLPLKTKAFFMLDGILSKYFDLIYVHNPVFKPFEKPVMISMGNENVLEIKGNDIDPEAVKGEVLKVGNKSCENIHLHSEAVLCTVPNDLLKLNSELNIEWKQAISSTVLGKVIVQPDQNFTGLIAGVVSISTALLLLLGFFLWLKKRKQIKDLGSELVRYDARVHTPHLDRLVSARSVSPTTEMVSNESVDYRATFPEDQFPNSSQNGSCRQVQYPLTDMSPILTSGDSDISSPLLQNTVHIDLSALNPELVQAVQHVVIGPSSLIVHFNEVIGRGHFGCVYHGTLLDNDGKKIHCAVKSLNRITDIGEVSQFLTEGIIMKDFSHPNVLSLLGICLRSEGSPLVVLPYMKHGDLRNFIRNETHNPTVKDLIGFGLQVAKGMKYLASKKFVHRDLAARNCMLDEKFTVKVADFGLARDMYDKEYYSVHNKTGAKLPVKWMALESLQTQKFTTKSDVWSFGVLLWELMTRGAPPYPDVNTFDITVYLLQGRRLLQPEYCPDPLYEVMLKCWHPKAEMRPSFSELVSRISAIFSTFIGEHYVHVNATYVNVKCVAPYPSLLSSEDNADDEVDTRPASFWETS
# Sequence of c-Met (P08581 25-307 limits assumed): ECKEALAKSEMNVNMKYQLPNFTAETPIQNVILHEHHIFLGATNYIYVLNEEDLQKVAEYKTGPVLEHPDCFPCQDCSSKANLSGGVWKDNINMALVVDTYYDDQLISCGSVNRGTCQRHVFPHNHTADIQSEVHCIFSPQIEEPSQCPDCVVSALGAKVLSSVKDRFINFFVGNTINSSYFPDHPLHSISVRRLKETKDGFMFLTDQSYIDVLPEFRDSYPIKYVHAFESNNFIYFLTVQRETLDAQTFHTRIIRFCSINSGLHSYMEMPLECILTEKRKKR
Substance,Effect on angiogenesis in disc assay versus SGC discs (neovascularization),Effect on 125I-COMPOUND 2 binding to HEK cells (c-Met receptor),Competition for 125I-Norleual specific binding to HEK293 cell membranes [1],Concentration at which c-Met auto-phosphorylation saturates (c-Met),Proliferation and migration of human endothelial cells (human endothelial cells)
Nle-Tyr-Ile-6(amino) hexanoic acid amide [Compound 4],antagonist activity,–,–,–,–
"HGF: Hepatocyte growth factor (SEQ ID NO:83), purchased from R&D systems; native ligand of the c-Met receptor",–,blocked,competed,550 pM,–
Nle-Tyr-Ile-His ([Nle]YIH) [Compound 3],antagonist activity,–,–,–,–
Nle-Tyr-Ile-His-Pro-Phe ([Nle]YIHPF) [Compound 1],lone AT4 receptor agonist,–,–,–,augmented
